The text below walks through data of patent US6262083A, “Genipin derivative having liver protection activity” (priority 1997, dated 2001).

Data set [1] relates to liver cells. As to the kind of experiment: liver protection effect in carbon tetrachloride / D-galactosamine model, serum ALT (GPT) or AST in rats, oral for 4 days. In kind it is in vivo. The settings on record: 100 mg/kg, p.o. The protocol: The efficacy of compounds of formulas (I)a, (I)b, (I)c and (I)d was measured according to the method of carbon tetrachloride model [referred to: Philippe letteron et al., Biochemical Pharmacology, 39, 12, 2027~2034, 1990] and D-galactosamine model [referred to: Koji Hase et al., Biol. Pharm. Bull., 20, 4, 381~385, 1997].
Carbon tetrachloride and D-galactosamine are known as the compounds inducing the severe damage to liver cells, because carbon tetrachloride suppresses the biosysthesis of protein in the liver and induces the necrosis of liver cells, and D-galactosamine also induces the necrosis of liver cells by changing the structure of liver cell membranes.
In the present invention, the compounds of formulas (I)a, (I)b, (I)c and (I)d were orally administered to the rats as experimental animals for 4 days, and then the liver protection effect was examined by measuring the serum ALT or AST values in the experimental animals (referred to: Biol. Prarm. Bull., 20, 4, 38 1~385, 1997; Toxicology and Applied Pharmacology, 95, 1~11, 1988).
Following is calculation formula to evaluate liver protection properties of compounds of formulas (I)a, (I)b, (I)c and (I)d; [formula]
the control group means the group to which carbon tetrachloride or D-galactosamine is administered and the liver cells are impaired;
the normal group means the group to which normal solution is administered.
The liver protection effects of compounds of formulas (I)a, (I)b, (I)c and (I)d are shown to following Table 1 in comparison with known liver protection compound silimarin.

Data set [2] can be described thus: acute toxicity in ICR mouse. In kind it is in vivo. The following applies: mouse, in vivo, read-out: Lethal ratio (%). The protocol:
(§1) On the other hand, the acute toxicity of compounds of formulas (I)a, (I)b, (I)c and (I)d is measured using mouse according to the standard of drug toxicity test. The mouse is selected from the 4 weeks old ICR mouse and each dosage of 250 mg/kg, 500 mg/kg, 1,000 mg/kg and 2,000 mg/kg compounds of formulas (I)a, (I)b, (I)c and (I)d are administered after suspending the compounds in the corn oil.

In data set [3] the test system is ICR mouse. As to the kind of experiment: acute toxicity in ICR mouse. In kind it is in vivo. Here is the method: as §1
For data set [4], the system named is HBV. As to the kind of experiment: inhibitory effect on HBV replication in 2.2.15 cell culture. In kind it is cell-based. The settings on record: for pEC50: Hepatitis B virus, 216 h, read-out: ED50 (inhibitory effect on HBV replication); for SI (selectivity Index, IC50/ED50): cytotoxicity IC50 / anti-HBV ED50, 2.2.15 cell. The protocol: Test for identifying the anti HBV effect of the compound of the present invention was carried out according to a known assay method (see, Korba and Milman, Antiviral Res., 15, 217, 1991). The assay procedure is briefly described in the following.
2.2.15. cell was cultured and preserved in RPM 11640 culture medium containing 5% fetal bovine serum (FBS), 2 mM glutamine and 50 μg/ml gentamicin sulfate. Resistance to G418 of the cell culture and degree of Mycoplasma contamination were examined according to conventional methods.
Cells (1×10^4 /cm^2) were inoculated into a multi-well tissue culture plate, confluently cultured for 7 days, and then kept for 2 or 3 days in confluent condition to stabilize the HBV DNA level. Then, culture medium was replaced 24 hours before cells were exposed to test compound. During the treatment of 9 days, culture medium was replaced and then test compound was added to the fresh culture medium at intervals of 24 hours. Culture medium was collected immediately before the first introduction of test compound, and after 3, 6, 9 days, respectively, and stored at -70° C. before HBV DNA analysis. Then, cytolysis was carried out to analyze the intracellular HBV DNA.
To analyze the extracellular HBV DNA, 0.2 ml of culture medium was incubated in 1M NaOH/10×SSC (1×SSC=0.15M NaCl/0.015M sodium citrate, pH 7.2) for 20 minutes at 25° C. and then immediately applied to a nitrocellulose membrane presoaked in 20×SSC using a slot blot apparatus. The sample was washed twice with 0.5 ml of 1M Tris/2M NaCl (pH 7.2) and once with 0.5 ml of 20×SSC to neutralize, and then it was washed again with 2×SSC and heated at […] for one hour under vacuum. Generally, the cells which have been cultured and preserved in a dish having a diameter of 10 cm are dissolved in 6 ml of lysis buffer, and the […] DNA is prepared according to the method of Korba et al., 1991.
10 μg/lane of cellular DNA sample was digested with restriction enzyme Hind III. Then, the digested sample was applied to 1% agarose gel electrophoresis and transferred to a nitrocellulose membrane.
3.2 kb HBV DNA fragment obtained by EcoR I-digestion and purification was labeled with [^32 P]dCTP using nick translation method. This labeled fragment was used as a hybridization probe. Condition for hybridization and post-washing were controlled by referring to the method of Korba et al., 1991 and HBV nucleic acid content among test sample was determined by Ambis beta scanner. The relative radioactivity of ^32 P hybridized to the test sample was compared with that of ^32 P hybridized to the standard amount of HBV DNA which was applied to each nitrocellulose membrane filter (gel or slot blot). From the calibration curve, the amount of HBV DNA corresponding to the relative cpm value was calculated.
Since the content of intracellular and extracellular HBV DNA has some inherent variations, only inhibition greater than 3.5-fold in the case of HBV virion DNA or 3.0-fold in the case of HBV DNA replication intermediates form the average level of HBV DNA formed in the untreated cell were considered to be statistically significant (P<0.05) in the present experiment. The lever of HBV DNA integrated during each cellular DNA preparation (which remains constant per cell in the present experiment) was used to calculate the level of intracellular HBV DNA formed, thereby the technical variations inherent in the blot hybridization analysis can be eliminated. Typical values for extracellular HBV virion DNA in the untreated cells ranged from 50 to 150 pg/ml culture medium with an average value of about 75 pg/ml. Intracellular HBV DNA replication intermediates (RI) in the untreated cells ranged form 50 to 100 pg/μg cellular DNA with an average value of about 74 pg/μg. […]

Data set [5] is described as follows: cytotoxicity test, neutral red dye uptake method. In kind it is cell-based. The following applies: human, 2.2.15 cells, 2.2.15 cell culture, A510, read-out: IC50 (cytotoxicity). The protocol:
Cytotoxivity test was carried out in order to determine whether the antiviral effect of the compound according to the present invention is due to the general influence on cell growth or not. In the present experiment, neutral red dye uptake method was used. This is a standard method widely utilized for examining cell survival, by which the variety of relations between viruses such as HSV or HIV and host organism can be understood.
Cytotoxicity test was performed on a 96-well tissue culture plate. Cells were cultured and treated with test compounds in the same manner as Biological Example 1, and the experiments at 4-kind concentrations were repeated threetimes, respectively. Since the relative toxicity can be determined form the uptake level of neutral red dye, quantitative analysis was carried out using the absorbance of internalized dye at 510 nm (A510).

Data set [6] relates to HBV. The settings on record: Korean Patent Laid-open No. 94-1886; cited from earlier work.
The conditions of data set [7]: cited from earlier work; for in vivo activities: in words.
Where [8] appears, read: 2.2.15 cell culture, 9 days treatment.

pEC50: −log10 of the molar value. Where two headings read alike, the source gives them in different places.

For `COC(=O)C1=CO[C@H](OCc2ccccc2)[C@H]2[C@@H]1CC1OC(C)(C)OC12CNC(=O)Nc1cccnc1` (stereo partly drawn) [Compound (I)d, methyl (1S,8S,12S)-2-[(3-pyridyl)ureido]methyl-4,4-dimethyl-3,5,11-trioxa-12-benzyloxy-tricyclo[6.4.0.0<2,6>]dodec-9-en-9-carboxylate], in data set [1], the “Liver protection effect (GPT, %)” value is recorded as 74%. Also, the mortality in data set [2] (250 mg/kg), in data set [2] (500 mg/kg), in data set [2] (1000 mg/kg) and in data set [2] (2000 mg/kg) was 0% throughout. In addition, the “Number of dead animals/Number of administered animals” value in data set [3] (250 mg/kg), in data set [3] (500 mg/kg), in data set [3] (1000 mg/kg) and in data set [3] (2000 mg/kg) was 0/5 throughout. For the same compound, the pEC50 in data set [4] (setting [8]) is 4.70. The “SI (selectivity Index, IC50/ED50)” value in data set [4] stood at 2.5. In addition, the CC50 at 216 h in data set [5] was found to be 70 µM.

Consider `Nc1ccn([C@H]2CC[C@@H](CO)O2)c(=O)n1` [ddC, dideoxy cytidine, reference compound], for which, in data set [4], the pEC50 is 4.82 and the “SI (selectivity Index, IC50/ED50)” value is > 2.0. For the same compound, the CC50 at 216 h in data set [5] is > 30 µM.

As to `COC(=O)C1=CO[C@@H](O)[C@@H]2C(CO)=CC[C@H]12` [genipin], the HBV replication entry in data set [6] is given as “inhibit the HBV replication”. In addition, the anti-tumor effect entry in data set [7] (Japanese Patent Laid-open No. 80/164625) is recorded as “effective as an anti-tumor agent”. For the same compound, the in vivo activities result in data set [7] is “liver-protection, inhibition of biosynthesis of RNA and protein, detoxification as well as antiviral activity”.

`COC(=O)C1=CO[C@@H](OCc2ccccc2)[C@@H]2C(CN=[N+]=[N-])=CC[C@H]12` [Compound (I)a, methyl (7R,3aS,7aS)-1-azidomethyl-7-benzyloxy-3,7,3a,7a-tetrahydro-6-oxaindene-4-carboxylate]: the “Liver protection effect (GPT, %)” value in data set [1] came out at 65%. Moreover, the mortality in data set [2] (250 mg/kg), in data set [2] (500 mg/kg), in data set [2] (1000 mg/kg) and in data set [2] (2000 mg/kg) was 0% throughout. Moreover, the “Number of dead animals/Number of administered animals” value in data set [3] (250 mg/kg), in data set [3] (1000 mg/kg) and in data set [3] (2000 mg/kg) was 0/5 in each case. For the same compound, in data set [4] (setting [8]), the pEC50 was 4.10. For the same compound, the “SI (selectivity Index, IC50/ED50)” value in data set [4] is recorded as 4.5. Besides, the CC50 at 216 h in data set [5] is 120 µM.

As for `OCC1=C[C@@H](O)[C@@H]2C=CO[C@@H](O[C@@H]3O[C@H](CO)[C@@H](O)[C@H](O)[C@H]3O)[C@H]12` [aucubin], the HBV replication entry in data set [6] is recorded as “inhibit the HBV replication”. In addition, in data set [7], the in vivo activities entry is “liver-protection, inhibition of biosynthesis of RNA and protein, detoxification as well as antiviral activity”.

For the compound `COC(=O)C1=CO[C@@H]2O[C@H](OC)[C@@H]3CC[C@H]1[C@H]23` [Compound (I)b, (2S,2aR,4aS,7aR,7bS)-2-methoxy-5-methoxycarbonyl-2a,3,4,4a,7a,7b-hexa-hydro-2H-1,7-dioxacyclopent[c.d]indene], the “Liver protection effect (GPT, %)” value in data set [1] is reported as 57%. For the same compound, the mortality in data set [2] (250 mg/kg), in data set [2] (500 mg/kg), in data set [2] (1000 mg/kg) and in data set [2] (2000 mg/kg) was 0% throughout. The “Number of dead animals/Number of administered animals” value in data set [3] (250 mg/kg), in data set [3] (500 mg/kg), in data set [3] (1000 mg/kg) and in data set [3] (2000 mg/kg) was 0/5 each time. The pEC50 in data set [4] (setting [8]) is 4.40. For the same compound, the “SI (selectivity Index, IC50/ED50)” value in data set [4] was determined as 3.0. The CC50 at 216 h in data set [5] came to 90 µM.

With `COC(=O)C1=CO[C@@H](OCc2ccccc2)[C@@H]2C(/C=N/OC(C)(C)C)=CC[C@H]12` [Compound (I)c, methyl (1S,5R,6S)-5-benzyloxy-7-(t-buthoxyiminomethyl)-4-oxa-bicyclo [4.3.0]nona-2,7-dien-2-carboxylate], the “Liver protection effect (GPT, %)” value in data set [1] came to 64%. Also, the mortality in data set [2] (250 mg/kg), in data set [2] (500 mg/kg), in data set [2] (1000 mg/kg) and in data set [2] (2000 mg/kg) was 0% each time. In addition, the “Number of dead animals/Number of administered animals” value in data set [3] (250 mg/kg), in data set [3] (500 mg/kg), in data set [3] (1000 mg/kg) and in data set [3] (2000 mg/kg) was 0/5 each time. Besides, in data set [4] (setting [8]), the pEC50 was 4.52. For the same compound, the “SI (selectivity Index, IC50/ED50)” value in data set [4] is listed as 5.7. Further, in data set [5], the CC50 at 216 h came out at 180 µM.
